Literature values as cited in patent publication US20150250776A1, “COMPOSITIONS AND METHODS FOR ORAL DELIVERY OF ENCAPSULATED 3-AMINOPYRIDINE-2-CARBOXALDEHYDE PARTICLES” (NANOTHERAPEUTICS, INC., priority 2014, published 2015).

Legend:
[1] = tested on: cell lines selected for resistance to hydroxyurea
tumor cell lines = tumor cell lines compared with a fibroblast cell line

- solubility in DMSO (DMSO): soluble
- solubility in aqueous solutions (aqueous solutions): poor solubility
Structure (SMILES): Nc1cccnc1C=O [3-AP, 3-aminopyridine-2-carboxaldehyde]
- activity in hydroxyurea-resistant cell lines [1]: active
- cytotoxic effects, tumor versus fibroblast cell line (tumor cell lines): preferential cytotoxic effects
